Source: patent US8952024B2, “Herbicidal pyrimidone derivatives” (E I du Pont de Nemours and Company, priority 2009, dated 2015)

Assays:
Assay type in all cases: in vivo
[1] = system: johnsongrass (Sorghum halepense); assay: Test B pre-/postemergence plant response
Procedure, shortened: (§1)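 Visual injury, 0–100 scale (100 = complete control), rated against controls after 13 to 15 days in greenhouse. Pre-emergence: seeds in loam/sand soil, treated at planting. Post-emergence: 1- to 4-leaf plants (2 to 18 cm) in peat/vermiculite medium. Compounds formulated in non-phytotoxic solvent with surfactant.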

[2] = system: morningglory (Ipomoea coccinea); assay: Test B pre-/postemergence plant response
Procedure, shortened: as §1

[3] = system: goosegrass (Eleusine indica); assay: Test B pre-/postemergence plant response
Procedure, shortened: as §1

[4] = system: wheat (Triticum aestivum); assay: Test B pre-/postemergence plant response
Procedure, shortened: as §1

[5] = system: giant foxtail (Setaria faberii); assay: Test B pre-/postemergence plant response
Procedure, shortened: as §1

[6] = system: woolly cupgrass (Eriochloa villosa); assay: Test B pre-/postemergence plant response
Procedure, shortened: as §1

[7] = system: pigweed (Amaranthus retroflexus); assay: Test A pre-/postemergence plant response
Procedure, shortened: (§2)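 Greenhouse trial, ~10 days. Soil (loam/sand) sprayed preemergence after seeding; emerged plants (1–2 leaf, 2–10 cm) sprayed postemergence in parallel. Response = visual injury vs untreated control, 0–100.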

[8] = system: morningglory (Ipomoea spp.); assay: Test A pre-/postemergence plant response
Procedure, shortened: as §2

[9] = system: ducksalad (Heteranthera limosa); assay: Test B flooded paddy test; settings: for Plant response rating, Ducksalad: Flood (flooded paddy test), 13 to 15 days
Procedure, shortened: (§3)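 Ratings are visual, 0–100 (100 = complete control), taken versus untreated controls 13 to 15 days after treatment in the greenhouse. Compound went straight into paddy water held 3 cm above soil, applied to 2-leaf-stage plants of four species.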

rice (Oryza sativa) = assay: Test B flooded paddy test; settings: for Plant response rating, Rice: Flood (flooded paddy test), 13 to 15 days
Procedure, shortened: as §3

[10] = system: umbrella sedge (Cyperus difformis); assay: Test B flooded paddy test; settings: for Plant response rating, Sedge, Umbrella: Flood (flooded paddy test), 13 to 15 days
Procedure, shortened: as §3

[11] = system: barnyardgrass (Echinochloa crus-galli); assay: Test B flooded paddy test; settings: for Plant response rating, Barnyardgrass: Flood (flooded paddy test), 13 to 15 days
Procedure, shortened: as §3

[12] = 250 g ai/ha, Preemergence, 0 to 100 scale
[13] = Postemergence, 31 g ai/ha, scale 0 to 100 (0 no effect, 100 complete control)
[14] = Postemergence, 62 g ai/ha, scale 0 (no effect) to 100 (complete control), 13 to 15 days
[15] = Postemergence, 125 g ai/ha, visual rating after 13 to 15 days, scale 0 (no effect) to 100 (complete control)
[16] = Postemergence, 250 g ai/ha, scale 0 to 100
[17] = Preemergence, 31 g ai/ha, scale 0 to 100 (0 no effect, 100 complete control)
[18] = Preemergence, 62 g ai/ha, scale 0 to 100, 0 no effect, 100 complete control
[19] = Preemergence, 125 g ai/ha, 0 to 100 scale
[20] = Postemergence, 125 g ai/ha, visual injury, 0 to 100 scale (0 no effect, 100 complete control), approx. ten days
[21] = Postemergence, 500 g ai/ha, 0 to 100 scale, 0 = no effect, 100 = complete control, approx. ten days
[22] = Preemergence, 125 g ai/ha, 0 to 100 scale, 0 = no effect, 100 = complete control
[23] = Preemergence, 500 g ai/ha, visual injury, 0 to 100 scale (0 no effect, 100 complete control), approx. ten days
[24] = 250 g ai/ha, flooded paddy test, visual rating on 0 to 100 scale (0 no effect, 100 complete control) after 13 to 15 days
[25] = 31 g ai/ha, scale of 0 to 100 where 0 is no effect and 100 is complete control
[26] = 62 g ai/ha, scale 0 to 100, 0 is no effect, 100 is complete control
[27] = 125 g ai/ha, scale 0 to 100, 0 is no effect, 100 is complete control
[28] = 16 g ai/ha, Postemergence, 0 to 100 scale
[29] = Postemergence, 31 g ai/ha, 0 to 100 scale (0 no effect, 100 complete control)
[30] = Postemergence, 125 g ai/ha, scale 0 to 100 (0 no effect, 100 complete control)
[31] = Postemergence, 125 g ai/ha, 0 to 100 scale where 0 is no effect and 100 is complete control
[32] = Postemergence, 500 g ai/ha, visual injury, 0 to 100 scale (0 no effect, 100 complete control), approx. ten days
[33] = Preemergence, 500 g ai/ha, 0 to 100 scale, 0 = no effect, 100 = complete control
[34] = Postemergence, 250 g ai/ha, scale 0 to 100 (0 no effect, 100 complete control), 13 to 15 days
[35] = Postemergence, 125 g ai/ha, scale 0 (no effect) to 100 (complete control), 13 to 15 days
[36] = Postemergence, 62 g ai/ha, scale 0 to 100 (0 no effect, 100 complete control)

## 2-(3,5-difluorophenyl)-5-[(2-hydroxy-4-oxobicyclo[3.2.1]oct-2-en-3-yl)carbonyl]-3-(2-methoxyethyl)-4(3H)-pyrimidinone [Compound 243]
[1]; [12]
  Plant response rating, Johnsongrass: 98
[1]; [13]
  Plant response rating, Johnsongrass: 60
[1]; [14]
  Plant response rating, Johnsongrass: 70
[1]; [15]
  Plant response rating, Johnsongrass: 85
[1]; [16]
  Johnsongrass plant response rating: 95
[1]; [17]
  Plant response rating, Johnsongrass: 0
[1]; [18]
  Plant response rating, Johnsongrass: 85
[1]; [19]
  Johnsongrass plant response rating: 90
[2]; [12]
  Plant response rating, Morningglory: 98
[2]; [13]
  Plant response rating, Morningglory: 45
[2]; [14]
  Plant response rating, Morningglory: 45
[2]; [15]
  Plant response rating, Morningglory: 70
[2]; [16]
  Morningglory plant response rating: 75
[2]; [17]
  Plant response rating, Morningglory: 0
[2]; [18]
  Plant response rating, Morningglory: 40
[2]; [19]
  Morningglory plant response rating: 70
[3]; [12]
  Plant response rating, Goosegrass: 100
[3]; [13]
  Plant response rating, Goosegrass: 60
[3]; [14]
  Plant response rating, Goosegrass: 85
[3]; [15]
  Plant response rating, Goosegrass: 90
[3]; [16]
  Goosegrass plant response rating: 100
[3]; [17]
  Plant response rating, Goosegrass: 75
[3]; [19]
  Goosegrass plant response rating: 100
[4]; [12]
  Plant response rating, Wheat: 5
[4]; [13]
  Plant response rating, Wheat: 0
[4]; [14]
  Plant response rating, Wheat: 5
[4]; [15]
  Plant response rating, Wheat: 30
[4]; [16]
  Wheat plant response rating: 30
[4]; [17]
  Plant response rating, Wheat: 0
[4]; [18]
  Plant response rating, Wheat: 0
[4]; [19]
  Wheat plant response rating: 0
[5]; [12]
  Plant response rating, Foxtail, Giant: 98
[5]; [13]
  Plant response rating, Foxtail, Giant: 75
[5]; [14]
  Plant response rating, Foxtail, Giant: 85
[5]; [15]
  Plant response rating, Foxtail, Giant: 95
[5]; [16]
  Foxtail, Giant plant response rating: 100
[5]; [17]
  Plant response rating, Foxtail, Giant: 0
[5]; [18]
  Plant response rating, Foxtail, Giant: 15
[5]; [19]
  Foxtail, Giant plant response rating: 60
[6]; [12]
  Plant response rating, Cupgrass, Woolly: 60
[6]; [13]
  Plant response rating, Cupgrass, Woolly: 70
[6]; [14]
  Plant response rating, Cupgrass, Woolly: 75
[6]; [15]
  Plant response rating, Cupgrass, Woolly: 80
[6]; [16]
  Cupgrass, Woolly plant response rating: 85
[6]; [17]
  Plant response rating, Cupgrass, Woolly: 0
[6]; [18]
  Plant response rating, Cupgrass, Woolly: 15
[6]; [19]
  Cupgrass, Woolly plant response rating: 45
[7]; [20]
  Pigweed plant response rating: 100
[7]; [21]
  Plant response rating, Pigweed: 100
[7]; [22]
  Plant response rating, Pigweed: 50
[7]; [23]
  Plant response rating, Pigweed: 100
[8]; [20]
  Morningglory plant response rating: 80
[8]; [21]
  Plant response rating, Morningglory: 90
[8]; [22]
  Plant response rating, Morningglory: 20
[8]; [23]
  Plant response rating, Morningglory: 90
[9]; [24]
  Plant response rating, Flood, Ducksalad: 75
[9]; [25]
  Plant response rating, Ducksalad: 0
[9]; [26]
  Plant response rating, Ducksalad: 30
[9]; [27]
  Plant response rating, Ducksalad: 60
Rice (Oryza sativa); [24]
  Plant response rating, Flood, Rice: 0
Rice (Oryza sativa); [25]
  Plant response rating, Rice: 0
Rice (Oryza sativa); [26]
  Plant response rating, Rice: 0
Rice (Oryza sativa); [27]
  Plant response rating, Rice: 0
[10]; [24]
  Plant response rating, Flood, Sedge, Umbrella: 75
[10]; [25]
  Plant response rating, Sedge, Umbrella: 0
[10]; [26]
  Plant response rating, Sedge, Umbrella: 30
[10]; [27]
  Plant response rating, Sedge, Umbrella: 70
[11]; [24]
  Plant response rating, Flood, Barnyardgrass: 50
[11]; [25]
  Plant response rating, Barnyardgrass: 0
[11]; [26]
  Plant response rating, Barnyardgrass: 0
[11]; [27]
  Plant response rating, Barnyardgrass: 0

## O=C1CCCC(O)=C1C(=O)c1cnc(-c2ccccc2)n(C2CC[S+]([O-])CC2)c1=O (mixture of isomers) [Compound 169, 5-[(2-hydroxy-6-oxo-1-cyclohexen-1-yl)carbonyl]-2-phenyl-3-(trans/cis-tetrahydro-1-oxido-2H-thiopyran-4-yl)-4(3H)-pyrimidinone]
[1]; [28]
  Plant response rating, Johnsongrass: 40
[1]; [29]
  Plant response rating, Johnsongrass: 60
[1]; [30]
  Plant response rating, Johnsongrass: 65
[2]; [28]
  Plant response rating, Morningglory: 95
[2]; [29]
  Plant response rating, Morningglory: 95
[2]; [30]
  Plant response rating, Morningglory: 100
[3]; [28]
  Plant response rating, Goosegrass: 80
[3]; [29]
  Plant response rating, Goosegrass: 95
[3]; [30]
  Plant response rating, Goosegrass: 100
[4]; [28]
  Plant response rating, Wheat: 0
[4]; [29]
  Plant response rating, Wheat: 0
[4]; [30]
  Plant response rating, Wheat: 5
[5]; [28]
  Plant response rating, Foxtail, Giant: 75
[5]; [29]
  Plant response rating, Foxtail, Giant: 95
[5]; [30]
  Plant response rating, Foxtail, Giant: 100
[6]; [28]
  Plant response rating, Cupgrass, Woolly: 75
[6]; [29]
  Plant response rating, Cupgrass, Woolly: 85
[6]; [30]
  Plant response rating, Cupgrass, Woolly: 100
[7]; [31]
  Plant response rating, Pigweed: 100
[7]; [32]
  Pigweed plant response rating: 100
[7]; [22]
  Plant response rating, Pigweed: 0
[7]; [33]
  Plant response rating, Pigweed: 50
[8]; [31]
  Plant response rating, Morningglory: 100
[8]; [32]
  Morningglory plant response rating: 100
[8]; [22]
  Plant response rating, Morningglory: 0
[8]; [33]
  Plant response rating, Morningglory: 20

## O=C1CCCC(O)=C1C(=O)c1cnc(C2CC2)n(C2CCCCC2)c1=O [Compound 160]
[1]; [29]
  Plant response rating, Johnsongrass: 45
[1]; [30]
  Plant response rating, Johnsongrass: 65
[1]; [34]
  Plant response rating, Johnsongrass: 75
[2]; [29]
  Plant response rating, Morningglory: 75
[2]; [30]
  Plant response rating, Morningglory: 100
[2]; [34]
  Plant response rating, Morningglory: 100
[3]; [29]
  Plant response rating, Goosegrass: 80
[3]; [30]
  Plant response rating, Goosegrass: 90
[3]; [34]
  Plant response rating, Goosegrass: 90
[4]; [29]
  Plant response rating, Wheat: 10
[4]; [30]
  Plant response rating, Wheat: 40
[4]; [34]
  Plant response rating, Wheat: 45
[5]; [29]
  Plant response rating, Foxtail, Giant: 70
[5]; [30]
  Plant response rating, Foxtail, Giant: 75
[5]; [34]
  Plant response rating, Foxtail, Giant: 85
[6]; [29]
  Plant response rating, Cupgrass, Woolly: 65
[6]; [30]
  Plant response rating, Cupgrass, Woolly: 85
[6]; [34]
  Plant response rating, Cupgrass, Woolly: 95
[7]; [31]
  Plant response rating, Pigweed: 100
[7]; [32]
  Pigweed plant response rating: 100
[7]; [22]
  Plant response rating, Pigweed: 80
[7]; [33]
  Plant response rating, Pigweed: 100
[8]; [31]
  Plant response rating, Morningglory: 100
[8]; [32]
  Morningglory plant response rating: 100
[8]; [22]
  Plant response rating, Morningglory: 70

## CCCCn1c(-c2ccccc2)ncc(C(=O)C2=C(O)C3CCC(C3)C2=O)c1=O (centres unmarked) [Compound 240]
[1]; [35]
  Plant response rating, Johnsongrass: 100
[1]; [34]
  Plant response rating, Johnsongrass: 100
[1]; [36]
  Plant response rating, Johnsongrass: 100
[3]; [29]
  Plant response rating, Goosegrass: 95
[3]; [35]
  Plant response rating, Goosegrass: 98
[3]; [34]
  Plant response rating, Goosegrass: 98
[3]; [36]
  Plant response rating, Goosegrass: 98
[4]; [29]
  Plant response rating, Wheat: 30
[4]; [35]
  Plant response rating, Wheat: 50
[4]; [34]
  Plant response rating, Wheat: 50
[4]; [36]
  Plant response rating, Wheat: 35
[5]; [29]
  Plant response rating, Foxtail, Giant: 100
[5]; [35]
  Plant response rating, Foxtail, Giant: 100
[5]; [34]
  Plant response rating, Foxtail, Giant: 100
[5]; [36]
  Plant response rating, Foxtail, Giant: 100
[6]; [29]
  Plant response rating, Cupgrass, Woolly: 98
[6]; [35]
  Plant response rating, Cupgrass, Woolly: 100
[6]; [34]
  Plant response rating, Cupgrass, Woolly: 100
[6]; [36]
  Plant response rating, Cupgrass, Woolly: 100
[7]; [31]
  Plant response rating, Pigweed: 90
[7]; [32]
  Pigweed plant response rating: 100
[7]; [22]
  Plant response rating, Pigweed: 20
[7]; [33]
  Plant response rating, Pigweed: 100
[8]; [31]
  Plant response rating, Morningglory: 100
[8]; [32]
  Morningglory plant response rating: 100
[8]; [22]
  Plant response rating, Morningglory: 0
[8]; [33]
  Plant response rating, Morningglory: 0
